Patent US6559330B1, “CALCIUM COMPLEX OF [[(4R)-4-[BIS{CARBOXY-.KAPPA.O)METHYL]AMINO-.KAPPA.N]-6,9-BIS[(CARBOXY.KAPPA.O)METHYL]-1-[(4,4-DIPHENYLCYCLOHEXYL)OXY]-1-HYDROXY-2-OXA-6,9-DIAZA-1-PHOSPHAUNDECAN-11-YLIC-ACID-.KAPPA.N6,.KAPPA.N9,.KAPPA.011]1-OXIDATO(6-)]-, HEXAHYDROGEN, ITS SALTS, PHARMACEUTICAL AGENTS THAT …” (Schering Aktiengesellschaft, priority 1999, dated 2003)

Columns and labels:
[1] = HPLC content of Gd-MS-325 in the formulation after heating (100% method, external standard); type: physicochemical
Procedure: The low content and the yellow coloration indicate decomposition.
For comparison: Content after HPLC/95° C. (6 hours): 98.9%.

[2] = biological target: human serum albumin (HSA) (Homo sapiens, UniProt P02768); conditions: cited from earlier work
[3] = blood pool agent; cited from earlier work

Sequence of human serum albumin (HSA) (P02768 25-609): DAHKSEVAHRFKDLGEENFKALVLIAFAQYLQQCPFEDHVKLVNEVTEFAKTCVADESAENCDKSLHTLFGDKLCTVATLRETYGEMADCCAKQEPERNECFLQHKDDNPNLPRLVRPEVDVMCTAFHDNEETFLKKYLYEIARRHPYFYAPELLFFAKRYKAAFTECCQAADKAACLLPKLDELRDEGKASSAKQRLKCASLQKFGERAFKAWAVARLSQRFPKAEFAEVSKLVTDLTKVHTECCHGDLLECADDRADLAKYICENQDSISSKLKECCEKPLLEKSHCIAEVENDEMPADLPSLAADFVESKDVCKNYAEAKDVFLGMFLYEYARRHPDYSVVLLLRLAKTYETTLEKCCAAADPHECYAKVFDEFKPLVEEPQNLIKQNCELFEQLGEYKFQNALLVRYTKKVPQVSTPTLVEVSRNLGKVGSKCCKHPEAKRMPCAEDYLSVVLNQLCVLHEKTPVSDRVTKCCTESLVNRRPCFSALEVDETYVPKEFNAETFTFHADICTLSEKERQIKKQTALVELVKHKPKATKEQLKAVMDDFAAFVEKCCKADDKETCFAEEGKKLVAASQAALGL

content of Gd-MS-325 (HPLC) ([1]; 95° C. (6 hours), for comparison): 98.9%
content of Gd-MS-325 (HPLC) ([1]; in-situ formulation refluxed for 48 hours, low content and yellow coloration indicate decomposition): 96.3%
Substance: gadolinato(3-),[[(4R)-4[bis[(carboxy-.kappa.O)methyl]amino-.kappa.N]-6,9-bis[(carboxy-.kappa.O)methyl]-1-[(4,4-diphenylcyclohexyl)oxy]-1-hydroxy-2-oxa-6,9-diaza-1-phosphaundecan-11-ylic-acid-.kappa.N6,.kappa.N9,kappa.011]1-oxidato(6-)]-trihydrogen [Gd-MS-325]
binding to human serum albumin (HSA) [2]: binds to human serum albumin (HSA)
retention in the intravascular space [3]: retained in the intravascular space
